Article PMC9579956 (RSC Medicinal Chemistry, 2022)
“And” between values parts separate entries of the source, which are not always exact repeats. Equal values may be shown once. Read-outs that look alike come from different tables or passages of the source.

Legend:
[1] = target: T1, Mycobacterium thermoresistible (Mtr) LpqY (Mycolicibacterium thermoresistibile, UniProt G7CES0); assay type: binding; conditions: for Screen signal/noise ratio (MST S/N): compound 100 μM, LpqY 500 nM, 10% DMSO, duplicate; for Pathogen Box screen signal/noise ratio: single dose MST screen against LpqY
[2] = target: T1, Mycobacterium thermoresistible (Mtr) LpqY; assay type: binding; conditions: for Hit validation Binding score: MST re-evaluation of hits against LpqY; for Validation binding score (MST): quadruplicate, new batch of LpqY
[3] = target: T1, Mycobacterium thermoresistible (Mtr) LpqY; experiment: Affinity studies with microscale thermophoresis (MST); assay type: binding; conditions: for Binding to LpqY (qualitative): Kd could not be determined
[4] = Solubility in aqueous buffer (observation in MST affinity assay); assay type: physicochemical
Excerpt: The top five hits that were commercially available were selected for further characterisation and the binding affinities determined with LpqY (Fig. 4, Table S2 ^†).

T1 sequence (G7CES0 29-471): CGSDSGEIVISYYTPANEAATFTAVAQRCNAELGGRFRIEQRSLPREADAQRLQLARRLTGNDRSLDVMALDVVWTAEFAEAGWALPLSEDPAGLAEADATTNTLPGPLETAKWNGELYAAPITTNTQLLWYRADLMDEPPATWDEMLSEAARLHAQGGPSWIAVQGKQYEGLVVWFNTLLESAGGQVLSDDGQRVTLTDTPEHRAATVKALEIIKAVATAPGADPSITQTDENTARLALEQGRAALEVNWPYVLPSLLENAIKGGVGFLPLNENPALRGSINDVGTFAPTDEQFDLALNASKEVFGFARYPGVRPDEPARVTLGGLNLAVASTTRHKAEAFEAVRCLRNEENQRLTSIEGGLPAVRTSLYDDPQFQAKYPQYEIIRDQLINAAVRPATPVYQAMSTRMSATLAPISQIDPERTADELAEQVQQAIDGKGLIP

Row | Compound | Screen signal/noise ratio (MST S/N) [1] | Pathogen Box screen signal/noise ratio [1] | Hit validation Binding score [2] | Validation binding score (MST) [2] | also measured
1 | C[C@H]1c2cccc(O)c2C(=O)C2=C(O)[C@]3(O)C(=O)C(C(N)=O)=C(O)[C@@H](N(C)C)[C@@H]3[C@@H](O)[C@@H]21 [MMV000011, Doxycycline, reference compound] | 5.8 | 5.8 | 6.5 | 6.5 | Validation binding score (MST) ([2]; listed as doxycycline): > 5
2 | COc1cc(NC(C)CCCN)c2ncccc2c1 (stereo not drawn) [MMV000023, Primaquine, reference compound] | 10.0 | 10.0 | 21.6 | 21.6 | Binding to LpqY (qualitative) ([3]; MST): Concentration dependent binding
3 | COc1ccccc1C(C)NCC(=O)Nc1cc(C(F)(F)F)ccc1Cl (stereo not drawn) [MMV020321, N-[2-chloro-5-(trifluoromethyl)phenyl]-2-[1-(2-methoxyphenyl)ethylamino]acetamide] | 5.5 | 5.5 | 1.9 | 1.9 | –
4 | O=C(Nc1cccc(Cl)c1)c1cnc(N2CCN(c3ccncc3)CC2)c(Cl)c1 [MMV024406, 5-chloro-N-(3-chlorophenyl)-6-(4-pyridin-4-ylpiperazin-1-yl)pyridine-3-carboxamide] | 5.2 | 5.2 | 2.3 | 2.3 | –
5 | CNC(=O)C1Cc2c([nH]c3cc(Cl)ccc23)C2(CCN(CCc3ccccc3)CC2)N1 (stereo not drawn) [MMV031011, 7-chloro-N-methyl-1'-(2-phenylethyl)spiro[2,3,4,9-tetrahydropyrido[3,4-b]indole-1,4'-piperidine]-3-carboxamide] | 5.7 | 5.7 | 3.7 | 3.7 | –
6 | CCOC(=O)NC(=O)c1ccsc1NC(=O)c1nc2ccccc2s1 [MMV090930, TCA1, reference compound] | 29.5 | 29.5 | 91.5 | > 5 | Kd [3]: 14.2 ± 0.8 µM; fold increase of affinity (Kd) compared to trehalose ([3]; MST): ~2.5 fold
7 | COc1ccc(OC(C)C(=O)Nc2ccc(Cl)cc2C)cc1 (stereo not drawn) [MMV202458, N-(4-chloro-2-methylphenyl)-2-(4-methoxyphenoxy)propanamide] | 5.5 | 5.5 | 6.3 | 6.3 and > 5 | –
8 | COc1ccc(N(CCc2cccc(C)n2)C(=O)C2CCCCC2)cc1 [MMV675996, N-(4-methoxyphenyl)-N-[2-(6-methylpyridin-2-yl)ethyl]cyclohexanecarboxamide] | 6.0 | 6.0 | 4.9 | 4.9 | –
9 | COc1ccccc1OCCCCn1c(C2CC2)nc2ccccc21 [MMV676474, 2-cyclopropyl-1-[4-(2-methoxyphenoxy)butyl]benzimidazole] | 6.0 | 6.0 | 6.2 | 6.2 and > 5 | –
10 | Nc1cccnc1Nc1ccc(Cl)cc1 [MMV676524, 2-N-(4-chlorophenyl)pyridine-2,3-diamine] | 6.4 | 6.4 | 12.2 | – | Solubility in aqueous buffer [4]: poor solubility; Binding to LpqY (qualitative) ([3]; MST): Concentration dependent binding
11 | O=C(NCCc1c[nH]c2ccccc12)c1cc2ccccc2oc1=O [MMV676539, N-[2-(1H-indol-3-yl)ethyl]-2-oxochromene-3-carboxamide] | 6.2 | 6.2 | 6.4 | 6.4 and > 5 | –
12 | CNC(=O)c1nn(C)c2c1C(C)(C)Cc1cnc(Nc3ccc(N4CCN(C)CC4)cc3)nc1-2 [MMV676602, Milciclib, reference compound] | 9.5 | 9.5 | 13.6 | > 12 | Solubility in aqueous buffer [4]: poor solubility; Binding to LpqY (qualitative) ([3]; MST): Concentration dependent binding
13 | CC1(C)OB(O)c2ccc(C3=NOC(c4cc(Cl)c(F)c(Cl)c4)(C(F)(F)F)C3)cc21 (stereo not drawn) [MMV687775, 5-(3,5-dichloro-4-fluorophenyl)-3-(1-hydroxy-3,3-dimethyl-2,1-benzoxaborol-5-yl)-5-(trifluoromethyl)-4H-1,2-oxazole] | 6.6 | 6.6 | 3.9 | 3.9 | –
14 | COc1cc(C2=NCCN2)cc2cc(-c3ccc(C4=NCCN4)cc3)oc12 [MMV688362, 2-[4-[5-(4,5-dihydro-1H-imidazol-2-yl)-7-methoxy-1-benzofuran-2-yl]phenyl]-4,5-dihydro-1H-imidazole] | 12.6 | 12.6 | 14.8 | – | –
15 | CS(=O)(=O)c1ccccc1C(=O)N(Cc1ccccc1)c1ccccc1 [MMV688798, N-benzyl-2-methylsulfonyl-N-phenylbenzamide] | 5.2 | 5.2 | 1.3 | 1.3 | –
16 | CC(=O)Oc1ccccc1C(=O)Nc1ncc([N+](=O)[O-])s1 [MMV688991, Nitazoxanide, reference compound] | 8.3 | 8.3 | 20.0 | – | Kd [3]: 85.4 µM; fold decrease in affinity compared to trehalose ([3]; MST): ~2 fold
17 | COc1ccc(Oc2ccc([C@@H](C)N(C)c3ncc4c(N)nc(N)nc4n3)cc2)cc1 [MMV690102] | – | 2.1 | – | – | –
18 | C[C@H](c1ccc2c(c1)CCCC2)N(C)c1ncc2c(N)nc(N)nc2n1 [MMV690103] | – | 1.5 | – | – | –
19 | CCc1ccc(C(NCc2nc(N)nc(N(C)C)n2)C(C)C)cc1 (stereo not drawn) [MMV1019989] | – | 0.5 | – | – | –
20 | O=C(Nc1nc(-c2ccccn2)cs1)C1CC1c1ccccc1F (stereo not drawn) [MMV1028806] | – | 0.225 | – | – | –
21 | CNC(=O)CNc1nc(-c2ccccn2)nc2scc(-c3ccccc3)c12 [MMV1029203] | – | 0.463 | – | – | –
22 | CCCn1c(NC(=O)c2ccc3ccccc3n2)nc2ccccc21 [MMV1030799] | – | 0.9 | – | – | –
23 | CCNC(=O)C(C)Nc1nc(-c2cccnc2)nc2sc(C)c(C)c12 (stereo not drawn) [MMV1037162] | – | 1.2 | – | – | –
24 | Cc1ccc(-c2nc(CN(Cc3ccccn3)C(C)C)cs2)o1 [MMV1088520] | – | 0.0 | – | – | –
25 | COc1cccn2c(C(=O)N3CCCCC3)c(C(F)(F)F)nc12 [MMV1110498] | – | 1.5 | – | – | –
26 | Cc1cc(OCC(=O)Nc2ccc(C(C)C)cc2)n(C)c(=O)c1C#N [MMV1198433] | – | 1.0 | – | – | –
27 | CCOC(=O)c1noc(N)c1-c1ccccc1 [MMV1236379] | – | 1.2 | – | – | –
28 | OC[C@H]1O[C@H](O[C@H]2O[C@H](CO)[C@@H](O)[C@H](O)[C@H]2O)[C@H](O)[C@@H](O)[C@@H]1O [Trehalose, α-D-glucopyranosyl-α-D-glucopyranoside, reference compound] | – | – | 8.3 | 8.3 | –
